For two compounds, Activity results are on record in ChEMBL document CHEMBL5696441 (Nat Chem Biol, 2011).

Assay [1] concerns the target Wee1-like protein kinase (Homo sapiens) (UniProt P30291). Put plainly: Inhibition of WEE1 (unknown origin) assessed as remaining activity at 1 uM by Kinome scan method relative to control.
Assay [2] addresses T1, Phosphorylase b kinase gamma catalytic chain, liver/testis isoform (Homo sapiens) (UniProt P15735).
T1 sequence (whole entry): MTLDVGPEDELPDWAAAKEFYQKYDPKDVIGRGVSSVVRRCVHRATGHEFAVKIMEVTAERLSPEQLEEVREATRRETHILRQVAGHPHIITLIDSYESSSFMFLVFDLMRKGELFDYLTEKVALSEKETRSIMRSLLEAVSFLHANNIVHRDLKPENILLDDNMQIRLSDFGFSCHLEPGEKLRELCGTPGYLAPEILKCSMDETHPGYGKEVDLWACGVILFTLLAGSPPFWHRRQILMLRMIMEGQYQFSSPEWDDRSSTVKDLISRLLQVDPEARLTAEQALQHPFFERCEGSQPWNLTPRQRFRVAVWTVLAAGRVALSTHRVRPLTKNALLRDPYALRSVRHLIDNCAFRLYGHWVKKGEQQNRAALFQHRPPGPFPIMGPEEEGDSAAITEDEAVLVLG
The assay is described as follows: Inhibition of PHKG2 (unknown origin) assessed as remaining activity at 1 uM by Kinome scan method relative to control.

The target in assay [3] is T2, Serine/threonine-protein kinase D3 (Homo sapiens) (UniProt O94806).
T2 sequence (whole entry): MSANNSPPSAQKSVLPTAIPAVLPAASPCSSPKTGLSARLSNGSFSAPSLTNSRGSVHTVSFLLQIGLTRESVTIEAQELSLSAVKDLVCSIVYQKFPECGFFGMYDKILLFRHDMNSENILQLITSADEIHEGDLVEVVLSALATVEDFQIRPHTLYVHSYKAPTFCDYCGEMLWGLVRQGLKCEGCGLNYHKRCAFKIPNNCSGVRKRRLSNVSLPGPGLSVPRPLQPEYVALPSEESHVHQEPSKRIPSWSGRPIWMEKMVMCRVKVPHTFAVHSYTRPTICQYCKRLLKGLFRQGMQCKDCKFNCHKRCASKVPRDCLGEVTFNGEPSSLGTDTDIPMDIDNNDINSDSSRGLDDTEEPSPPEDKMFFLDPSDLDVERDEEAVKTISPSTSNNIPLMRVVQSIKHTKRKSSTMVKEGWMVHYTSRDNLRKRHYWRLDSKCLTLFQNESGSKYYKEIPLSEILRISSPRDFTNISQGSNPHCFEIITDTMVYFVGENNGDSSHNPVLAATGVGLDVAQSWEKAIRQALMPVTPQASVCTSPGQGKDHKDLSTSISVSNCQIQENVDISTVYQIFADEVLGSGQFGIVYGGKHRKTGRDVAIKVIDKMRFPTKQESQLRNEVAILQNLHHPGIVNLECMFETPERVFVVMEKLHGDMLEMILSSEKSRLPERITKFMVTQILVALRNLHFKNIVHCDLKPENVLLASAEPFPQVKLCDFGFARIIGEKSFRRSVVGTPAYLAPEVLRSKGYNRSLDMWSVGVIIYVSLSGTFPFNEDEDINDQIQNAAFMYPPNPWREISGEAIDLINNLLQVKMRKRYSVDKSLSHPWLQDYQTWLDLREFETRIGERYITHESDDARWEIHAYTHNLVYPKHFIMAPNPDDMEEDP
Put plainly: Inhibition of PRKD3 (unknown origin) assessed as remaining activity at 1 uM by Kinome scan method relative to control.

The species named for a further assay is Homo sapiens. The assay is described as follows: Inhibition of ACVR1a (unknown origin) assessed as remaining activity at 1 uM by Kinome scan method relative to control.
Assay [4] concerns the target cAMP-dependent protein kinase catalytic subunit alpha (Homo sapiens) (UniProt P17612). The assay is described as follows: Inhibition of PKAC-alpha (unknown origin) assessed as remaining activity at 1 uM by Kinome scan method relative to control.
The target in assay [5] is Ephrin type-B receptor 6 (Homo sapiens) (UniProt O15197). The assay is described as follows: Inhibition of EPHB6 (unknown origin) assessed as remaining activity at 1 uM by Kinome scan method relative to control.
The target in assay [6] is T3, Ephrin type-A receptor 1 (Homo sapiens) (UniProt P21709).
T3 sequence (whole entry): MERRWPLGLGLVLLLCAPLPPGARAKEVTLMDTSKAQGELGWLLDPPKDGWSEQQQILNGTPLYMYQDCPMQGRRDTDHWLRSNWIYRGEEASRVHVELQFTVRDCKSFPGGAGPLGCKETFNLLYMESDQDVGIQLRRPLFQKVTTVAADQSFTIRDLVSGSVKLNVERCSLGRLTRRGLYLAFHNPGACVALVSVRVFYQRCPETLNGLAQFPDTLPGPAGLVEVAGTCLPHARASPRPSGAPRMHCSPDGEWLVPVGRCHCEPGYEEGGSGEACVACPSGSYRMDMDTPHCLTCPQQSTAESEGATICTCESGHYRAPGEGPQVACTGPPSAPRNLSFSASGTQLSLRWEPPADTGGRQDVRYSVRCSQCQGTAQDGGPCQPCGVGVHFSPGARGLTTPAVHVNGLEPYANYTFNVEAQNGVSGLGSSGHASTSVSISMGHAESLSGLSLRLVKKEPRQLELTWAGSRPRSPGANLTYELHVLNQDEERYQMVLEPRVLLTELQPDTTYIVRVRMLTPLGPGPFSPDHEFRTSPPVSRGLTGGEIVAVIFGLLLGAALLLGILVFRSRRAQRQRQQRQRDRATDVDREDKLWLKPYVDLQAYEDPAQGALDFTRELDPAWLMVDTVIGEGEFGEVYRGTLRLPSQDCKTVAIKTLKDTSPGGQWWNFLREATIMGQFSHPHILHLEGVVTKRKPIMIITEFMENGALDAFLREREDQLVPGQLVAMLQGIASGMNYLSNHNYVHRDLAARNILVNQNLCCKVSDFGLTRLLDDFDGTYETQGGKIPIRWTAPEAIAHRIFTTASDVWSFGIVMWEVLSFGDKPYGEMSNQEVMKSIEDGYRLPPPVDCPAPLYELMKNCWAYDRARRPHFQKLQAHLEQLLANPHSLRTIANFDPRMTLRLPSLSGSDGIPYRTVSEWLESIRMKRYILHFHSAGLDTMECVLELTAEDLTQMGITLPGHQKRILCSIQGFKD
The assay is described as follows: Inhibition of EPHA1 (unknown origin) assessed as remaining activity at 1 uM by Kinome scan method relative to control.

Assay [7] has as its target 5'-AMP-activated protein kinase catalytic subunit alpha-2 (Homo sapiens) (UniProt P54646). The assay is described as follows: Inhibition of AMPK-alpha2 (unknown origin) assessed as remaining activity at 1 uM by Kinome scan method relative to control.

5'-AMP-activated protein kinase catalytic subunit alpha-2 (Homo sapiens), sequence (P54646 whole entry, looked up): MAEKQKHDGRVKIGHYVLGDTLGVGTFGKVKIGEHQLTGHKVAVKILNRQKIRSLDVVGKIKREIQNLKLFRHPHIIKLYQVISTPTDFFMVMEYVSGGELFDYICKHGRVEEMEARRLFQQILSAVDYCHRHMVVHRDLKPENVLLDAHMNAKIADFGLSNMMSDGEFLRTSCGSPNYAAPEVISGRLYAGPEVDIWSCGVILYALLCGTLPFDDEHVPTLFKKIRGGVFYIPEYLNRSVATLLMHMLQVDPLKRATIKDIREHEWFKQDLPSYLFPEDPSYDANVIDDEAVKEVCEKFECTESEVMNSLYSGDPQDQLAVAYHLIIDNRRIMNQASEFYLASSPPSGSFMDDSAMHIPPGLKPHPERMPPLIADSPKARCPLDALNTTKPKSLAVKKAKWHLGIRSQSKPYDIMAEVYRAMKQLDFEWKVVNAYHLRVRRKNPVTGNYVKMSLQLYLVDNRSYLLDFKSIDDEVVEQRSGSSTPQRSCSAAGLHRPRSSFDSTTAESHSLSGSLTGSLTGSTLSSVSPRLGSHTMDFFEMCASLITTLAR
Wee1-like protein kinase (Homo sapiens), sequence (P30291 whole entry, looked up, canonical isoform): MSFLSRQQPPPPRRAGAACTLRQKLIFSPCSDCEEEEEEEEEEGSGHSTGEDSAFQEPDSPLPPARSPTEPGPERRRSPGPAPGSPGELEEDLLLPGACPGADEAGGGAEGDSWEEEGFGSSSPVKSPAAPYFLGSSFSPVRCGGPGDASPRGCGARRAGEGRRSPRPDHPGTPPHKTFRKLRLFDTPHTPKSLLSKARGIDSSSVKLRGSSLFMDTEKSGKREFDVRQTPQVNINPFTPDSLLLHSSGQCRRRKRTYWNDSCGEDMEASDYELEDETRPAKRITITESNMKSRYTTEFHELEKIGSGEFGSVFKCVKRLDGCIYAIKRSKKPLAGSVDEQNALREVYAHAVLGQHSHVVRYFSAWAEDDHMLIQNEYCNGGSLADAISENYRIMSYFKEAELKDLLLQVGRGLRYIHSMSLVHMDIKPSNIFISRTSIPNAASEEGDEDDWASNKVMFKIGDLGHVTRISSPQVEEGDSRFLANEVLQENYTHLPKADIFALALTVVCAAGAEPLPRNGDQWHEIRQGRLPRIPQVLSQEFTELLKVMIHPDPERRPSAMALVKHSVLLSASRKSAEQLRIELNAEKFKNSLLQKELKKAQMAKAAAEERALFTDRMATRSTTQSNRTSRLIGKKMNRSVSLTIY
Ephrin type-B receptor 6 (Homo sapiens), sequence (O15197 whole entry): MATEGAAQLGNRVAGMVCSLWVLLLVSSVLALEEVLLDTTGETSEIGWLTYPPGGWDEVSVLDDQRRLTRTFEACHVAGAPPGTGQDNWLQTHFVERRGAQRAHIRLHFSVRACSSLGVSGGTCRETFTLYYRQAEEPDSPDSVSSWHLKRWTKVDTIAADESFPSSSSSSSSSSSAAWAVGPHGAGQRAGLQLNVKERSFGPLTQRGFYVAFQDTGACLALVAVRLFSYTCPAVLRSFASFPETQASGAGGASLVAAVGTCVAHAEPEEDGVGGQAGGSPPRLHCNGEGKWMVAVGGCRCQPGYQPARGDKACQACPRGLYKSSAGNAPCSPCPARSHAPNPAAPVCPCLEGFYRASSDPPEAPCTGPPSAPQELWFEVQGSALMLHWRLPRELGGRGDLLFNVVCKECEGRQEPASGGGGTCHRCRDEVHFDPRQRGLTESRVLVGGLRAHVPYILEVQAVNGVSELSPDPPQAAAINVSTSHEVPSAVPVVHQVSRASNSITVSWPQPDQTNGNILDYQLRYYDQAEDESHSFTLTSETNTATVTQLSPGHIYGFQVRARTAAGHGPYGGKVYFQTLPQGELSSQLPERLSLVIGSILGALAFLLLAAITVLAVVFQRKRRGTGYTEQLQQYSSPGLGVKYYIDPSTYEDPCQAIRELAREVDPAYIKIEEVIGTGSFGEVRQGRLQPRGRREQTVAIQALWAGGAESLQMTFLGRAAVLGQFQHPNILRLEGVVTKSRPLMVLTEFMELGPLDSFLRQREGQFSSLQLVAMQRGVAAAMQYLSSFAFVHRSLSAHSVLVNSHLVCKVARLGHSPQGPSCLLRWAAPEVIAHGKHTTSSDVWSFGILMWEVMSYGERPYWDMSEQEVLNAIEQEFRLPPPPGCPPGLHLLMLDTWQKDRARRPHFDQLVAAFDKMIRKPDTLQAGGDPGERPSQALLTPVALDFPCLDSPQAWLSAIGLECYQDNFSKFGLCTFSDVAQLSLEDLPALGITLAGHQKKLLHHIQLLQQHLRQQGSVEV

In the case of `Nc1ccccc1Nc1ccc2c(c1)CCc1ccccc1C2=O`, the Activity came to 98% in assay [1]; 98% in assay [2]; 77% in assay [3]; 98% in the assay listed under Homo sapiens; 83% in assay [4]; 99% in assay [5]. In addition, the Activity stood at 98% in assay [6] and 95% in assay [7].

As to `O=C1c2ccc(Nc3ccc(F)cc3F)cc2CCc2ccc(OC[C@H](O)CO)cc21` [Skepinone-L], the Activity came to 100% in assay [1]; 96% in assay [2]; 91% in assay [3]; 98% in the assay listed under Homo sapiens; 95% in assay [4]; 91% in assay [5]. Further, the Activity turned out to be 91% in assay [6] and 100% in assay [7].
